Here are results for one molecule from patent US6958340B2, “Tyrosine kinase inhibitors” (Merck & Co., Inc., priority 2001, dated 2005).

Molecules are shown by their SMILES.

What is called melting point is the temperature of the solid-liquid transition. `Cc1cc(C)cc(Nc2nccc(-n3ccnc3-c3ccccc3)n2)c1` [Compound 1-24, N-(3,5-dimethylphenyl)-4-(2-phenyl-1H-imidazol-1-yl)pyrimidin-2-amine] showed a melting point of 183 °C.
